Results on three compounds are retold here after patent US20200281944A1, “Combinations Of Lanosterol Or 25-Hydroxycholesterol Including Derivatives Thereof Useful In The Treatment Of Lens Disorders” (priority 2017, published 2020).

Molecules are shown by their SMILES. Where a name gives a salt, the structure may show the parent alone.

One series concerns lens opacification. The settings on record: cell cultures, in the presence of guanidine; cited from earlier work.
The next series concerns presbyopia. Particulars: cited from earlier work.

Take `CC(C)=CCC[C@@H](C)[C@H]1CC[C@@]2(C)C3=C(CC[C@]12C)[C@@]1(C)CC[C@H](OP(=O)(O)O)C(C)(C)[C@@H]1CC3` (as salt: phosphate): the melting point was 204 to 205 °C.
`NCCC(=O)N[C@@H](Cc1c[nH]cn1)C(=O)O` [L-carnosine, β-alanyl-L-histidine]: the “prevention of lens opacification” value with lens opacification was 50 to 60%.
`C[N+](C)(C)CCOC(=O)CCCC[C@@H]1CCSS1` [EV06, Lipoic acid choline ester]: in the series with presbyopia (Lipoic acid choline ester 1.5%), the binocular near acuity entry is on record as “improved”. Also, the “distance corrected near vision acuity (DCNVA) efficacy measures” value in the series with presbyopia (in vivo) was “improvement in all”.
